As a reminder, the EC50 is the midpoint of the concentration-response curve.

In one test the target is T1, FSHR (Homo sapiens, UniProt P23945).
T1 construct: expressed in transfected cells; host or cells: CHO (Cho-FSHR-LUC-1-1-43)
T1 sequence (P23945 18-695): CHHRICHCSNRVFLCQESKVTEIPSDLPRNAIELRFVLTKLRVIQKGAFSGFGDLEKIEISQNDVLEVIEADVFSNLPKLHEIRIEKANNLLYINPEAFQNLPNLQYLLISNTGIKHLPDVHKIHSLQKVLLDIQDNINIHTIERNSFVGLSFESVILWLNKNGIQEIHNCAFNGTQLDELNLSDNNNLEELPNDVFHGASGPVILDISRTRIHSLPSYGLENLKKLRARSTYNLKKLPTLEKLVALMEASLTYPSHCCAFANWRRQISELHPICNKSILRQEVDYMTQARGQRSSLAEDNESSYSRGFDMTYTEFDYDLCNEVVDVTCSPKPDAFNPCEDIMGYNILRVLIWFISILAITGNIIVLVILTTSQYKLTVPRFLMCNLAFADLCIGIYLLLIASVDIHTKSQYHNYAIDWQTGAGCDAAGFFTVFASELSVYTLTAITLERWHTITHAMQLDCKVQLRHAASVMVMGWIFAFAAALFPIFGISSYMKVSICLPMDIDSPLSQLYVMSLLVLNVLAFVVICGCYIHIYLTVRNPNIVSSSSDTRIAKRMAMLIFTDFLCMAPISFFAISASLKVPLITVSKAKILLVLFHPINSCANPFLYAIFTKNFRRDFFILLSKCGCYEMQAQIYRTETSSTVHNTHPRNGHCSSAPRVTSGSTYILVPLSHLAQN
The experiment in a line: EC50 of cyclic AMP production in CHO FSHR cells + EC20 FSH (Assay A). The class given is cell-based. The settings on record: cyclic AMP production in CHO FSHR cells + EC20 FSH (0.265 pM), HTRF. As to the method:
Example 24. EC50 of cyclic AMP production in CHO FSHR cells+EC20 FSH (Assay A)
2500 Cho-FSHR-LUC-1-1-43 cells were plated per well in 5 al of phenol red free DMEM/F12+1% FBS. Cells were plated in 384 well, solid white low volume plates (Greiner 784075) by Multidrop. Cells were assayed by adding 100 al of 2×EC20 FSH/IBMX in DMEM/F12+0.1% BSA) by Multidrop to 2 al of test compound stamped in 384 well plates (compounds are diluted 1:50). The final FSH concentration was 0.265 pM, and the final IBMX concentration was 200 μM. The compound plate map was as follows: Column 1: 2 μl of DMSO; Column 2: 2 μl of DMSO; Columns 3-12 and 13-24: 2 μl of test compound, diluted 1:4 in 100% DMSO, or 2 μl of FSH, diluted 1:4 in DMEM/F12+0.1% BSA. The starting concentration for FSH was 50 nM (final concentration was 0.5 nM). Furthermore, Column 23 contained 2 μl of EC100 FSH reference (100×) (diluted in DMEM/F12+0.1% BSA) at a final concentration of 0.5 nM, and Column 24 contained 2 μl of 1 mM AS707664/2 reference compound 2. 5 μl of compound+EC20 FSH mixture were transferred to cell plates (1:2 dilution into 5 μl of cell media) The plates were incubated at 37° C. for 1 h. 10 μl of mixed HTRF (CisBio #62AM4PEC) reagents were added per well and incubated at room temperature for 1 h. The plates were read on Envision using the cAMP HTRF—low volume 384 well protocol. The readout was the calculated fluorescence ratio (665 nm/620 nm). Values given in percent (%) indicate the percental effect (response) at a certain concentration of agonist relative to the maximum response of the FSH standard.
(In general: In TR-FRET formats the signal depends on donor and acceptor labels being close together.)

The target of test [1] is T2, follicle-stimulating hormone (FSH) receptor (Rattus norvegicus, UniProt P20395).
T2 construct: endogenous in cells; host or cells: rat granulosa cells
T2 sequence (P20395 18-692): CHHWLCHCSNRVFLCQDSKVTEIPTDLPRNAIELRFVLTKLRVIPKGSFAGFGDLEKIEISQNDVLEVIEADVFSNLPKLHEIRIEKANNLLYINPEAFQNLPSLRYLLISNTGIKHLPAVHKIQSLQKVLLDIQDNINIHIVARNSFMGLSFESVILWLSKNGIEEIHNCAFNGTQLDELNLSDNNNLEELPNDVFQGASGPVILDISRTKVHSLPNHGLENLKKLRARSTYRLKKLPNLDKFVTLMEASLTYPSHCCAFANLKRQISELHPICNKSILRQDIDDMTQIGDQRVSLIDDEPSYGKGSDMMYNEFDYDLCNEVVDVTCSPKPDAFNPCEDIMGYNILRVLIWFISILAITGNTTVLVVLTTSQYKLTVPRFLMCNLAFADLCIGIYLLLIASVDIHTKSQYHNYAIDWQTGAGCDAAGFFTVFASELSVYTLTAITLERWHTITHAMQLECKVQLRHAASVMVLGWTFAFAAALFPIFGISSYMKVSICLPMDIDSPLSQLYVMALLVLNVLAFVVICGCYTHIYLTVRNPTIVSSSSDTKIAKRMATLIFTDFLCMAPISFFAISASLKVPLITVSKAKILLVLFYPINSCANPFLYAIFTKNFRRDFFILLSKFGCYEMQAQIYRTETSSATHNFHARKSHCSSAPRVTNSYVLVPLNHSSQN
The experiment in a line: Rat granulosa EC50 FSH (Assay B). The class given is cell-based. How it is done:
Example 25. Rat granulosa EC50 FSH (Assay B)
The assay was performed pursuant to the teaching of Yanofsky et al. (2006) Allosteric activation of the follicle-stimulating hormone (FSH) receptor by selective, nonpeptide agonists (JBC 281(19): 13226-13233, which is incorporated by reference in the disclosure of the invention).

For the compound `COc1cc2c(cc1-c1ccn(C)n1)-c1c(c(C(=O)N(C)C(C)(C)C)nn1-c1cc(Cl)cc(Cl)c1)CO2` [Compound 4, N-tert-butyl-1-(3,5-dichlorophenyl)-7-methoxy-N-methyl-8-(1-methyl-1H-pyrazol-3-yl)-1,4-dihydrochromeno[4,3-c]pyrazole-3-carboxamide], the EC50 on FSHR is 10 to 100 nM; in test [1], more than 500 nM.

For the compound `COc1cc2c(cc1-c1cncc(C(N)=O)c1C)-c1c(c(C(=O)N(C)C(C)(C)C)nn1-c1cc(Cl)cc(Cl)c1)CO2` [Compound 116, N-tert-butyl-8-(5-carbamoyl-4-methylpyridin-3-yl)-1-(3,5-dichlorophenyl)-7-methoxy-N-methyl-1,4-dihydrochromeno[4,3-c]pyrazole-3-carboxamide], the values for the EC50 (at FSHR; in test [1]) were less than 10 nM and 10 to 100 nM, respectively.

With `COc1cc(OC)cc(-n2nc(C(=O)N3CCOCC3(C)C)c3c2-c2cc(-c4cncc(C#N)c4)c(OC)cc2OC3)c1` [Compound 44, 5-(1-(3,5-dimethoxyphenyl)-3-(3,3-dimethylmorpholine-4-carbonyl)-7-methoxy-1,4-dihydrochromeno[4,3-c]pyrazol-8-yl)nicotinonitrile], the values for the concentration for a half-maximal effect (EC50) (at FSHR; in test [1]) were less than 10 nM and 10 to 100 nM, respectively.

For `COc1cc2c(cc1-c1cccnc1F)-c1c(c(C(=O)N(CCO)C(C)(C)C)nn1-c1cc(Cl)cc(Cl)c1)CO2` [Compound 123, N-tert-butyl-1-(3,5-dichlorophenyl)-8-(2-fluoropyridin-3-yl)-N-(2-hydroxyethyl)-7-methoxy-1,4-dihydrochromeno[4,3-c]pyrazole-3-carboxamide], the EC50 on FSHR is less than 10 nM; in test [1] it was 10 to 100 nM.

For the compound `CCOC(=O)[C@@H]1C[C@@H]1c1cc2c(cc1OC)OCc1c(C(=O)N(C)C(C)(C)C)nn(-c3cc(Cl)cc(Cl)c3)c1-2` (racemic) [Compound 197, (1RS,2SR)-ethyl 2-(3-(tert-butyl(methyl)carbamoyl)-1-(3,5-dichlorophenyl)-7-methoxy-1,4-dihydrochromeno[4,3-c]pyrazol-8-yl)cyclopropanecarboxylate], the concentration for a half-maximal effect (EC50) at FSHR was 10 to 100 nM; in test [1] it was more than 500 nM.

In the case of `COc1cc2c(cc1-c1ccn(C)n1)-c1c(c(C(=O)N(CCO)C(C)(C)C)nn1-c1ccsc1)CO2` [Compound 121, N-tert-butyl-N-(2-hydroxyethyl)-7-methoxy-8-(1-methyl-1H-pyrazol-3-yl)-1-(thiophen-3-yl)-1,4-dihydrochromeno[4,3-c]pyrazole-3-carboxamide], the EC50 was 10 to 100 nM on FSHR and more than 500 nM in test [1].

As for `COc1cc(OC)cc(-n2nc(C(=O)N3CCOCC3(C)C)c3c2-c2cc(-c4cncc(C)c4)c(OC)cc2OC3)c1` [Compound 43, (1-(3,5-dimethoxyphenyl)-7-methoxy-8-(5-methylpyridin-3-yl)-1,4-dihydrochromeno[4,3-c]pyrazol-3-yl)(3,3-dimethylmorpholino)methanone], the EC50 is less than 10 nM on FSHR and 10 to 100 nM in test [1].

As for `COc1cc2c(cc1-c1cc(C(N)=O)ccc1F)-c1c(c(C(=O)N(C)C(C)(C)C)nn1-c1cc(Cl)cc(Cl)c1)CO2` [Compound 93, N-tert-butyl-8-(5-carbamoyl-2-fluorophenyl)-1-(3,5-dichlorophenyl)-7-methoxy-N-methyl-1,4-dihydrochromeno[4,3-c]pyrazole-3-carboxamide], the EC50 was less than 10 nM on FSHR and 10 to 100 nM in test [1].

On to `COc1cc2c(cc1-c1cccnc1Cl)-c1c(c(C(=O)N(C)C(C)(C)C)nn1-c1ccsc1)CO2` [Compound 60, N-tert-butyl-8-(2-chloropyridin-3-yl)-7-methoxy-N-methyl-1-(thiophen-3-yl)-1,4-dihydrochromeno[4,3-c]pyrazole-3-carboxamide], for which the EC50 at FSHR is less than 10 nM; in test [1], 101 to 500 nM.

As for `COc1cc2c(cc1CC(C)C)-c1c(c(C(=O)N3CCC(=O)CC3(C)C)nn1-c1ccsc1)CO2` [Compound 125, 1-(8-isobutyl-7-methoxy-1-(thiophen-3-yl)-1,4-dihydrochromeno[4,3-c]pyrazole-3-carbonyl)-2,2-dimethylpiperidin-4-one], the EC50 was less than 10 nM on FSHR and 10 to 100 nM in test [1].

`COc1cc2c(cc1-c1cccnc1C#N)-c1c(c(C(=O)N(C)C(C)(C)C)nn1-c1cc(Cl)cc(Cl)c1)CO2` [Compound 14, N-tert-butyl-8-(2-cyanopyridin-3-yl)-1-(3,5-dichlorophenyl)-7-methoxy-N-methyl-1,4-dihydrochromeno[4,3-c]pyrazole-3-carboxamide]: the EC50 at FSHR was less than 10 nM; in test [1] it was 10 to 100 nM.

Regarding `COc1cc2c(cc1-c1cc(CO)ncc1F)-c1c(c(C(=O)N(C)C(C)(C)C)nn1-c1cc(F)cc(F)c1)CO2` [Compound 75, N-tert-butyl-1-(3,5-difluorophenyl)-8-(5-fluoro-2-(hydroxymethyl)pyridin-4-yl)-7-methoxy-N-methyl-1,4-dihydrochromeno[4,3-c]pyrazole-3-carboxamide], the concentration for a half-maximal effect (EC50) (at FSHR; in test [1]) was 10 to 100 nM throughout.

With `COc1cc2c(cc1-c1cc(F)cc(CO)c1)-c1c(c(C(=O)N(C)C(C)(C)C)nn1-c1cc(Cl)cc(Cl)c1)CO2` [Compound 80, N-tert-butyl-1-(3,5-dichlorophenyl)-8-(3-fluoro-5-(hydroxymethyl)phenyl)-7-methoxy-N-methyl-1,4-dihydrochromeno[4,3-c]pyrazole-3-carboxamide], the EC50 at FSHR is less than 10 nM; in test [1], 101 to 500 nM.

For the compound `COc1cc2c(cc1-c1cncc(C(N)=O)c1)-c1c(c(C(=O)N3CC[S+]([O-])CC3(C)C)nn1-c1cc(F)cc(F)c1)CO2` (centres unmarked) [Compound 163], the figures for the EC50 (at FSHR; in test [1]) were less than 10 nM and 101 to 500 nM, respectively.

For `COc1cc2c(cc1-c1cnn(CC(=O)N(C)C)c1)-c1c(c(C(=O)N(C)C(C)(C)C)nn1-c1cc(Cl)cc(Cl)c1)CO2` [Compound 90, N-tert-butyl-1-(3,5-dichlorophenyl)-8-(1-(2-(dimethylamino)-2-oxoethyl)-1H-pyrazol-4-yl)-7-methoxy-N-methyl-1,4-dihydrochromeno[4,3-c]pyrazole-3-carboxamide], the EC50 on FSHR was less than 10 nM; in test [1] it was 101 to 500 nM.

Take `COc1cc2c(cc1-c1nc[nH]n1)-c1c(c(C(=O)N(C)C(C)(C)C)nn1-c1ccsc1)CO2` [Compound 207, N-tert-butyl-7-methoxy-N-methyl-1-(thiophen-3-yl)-8-(1H-1,2,4-triazol-3-yl)-1,4-dihydrochromeno[4,3-c]pyrazole-3-carboxamide]: the EC50 is less than 10 nM on FSHR and 101 to 500 nM in test [1].

These data come from patent publication US10941152B2, “Pyrazole compounds as modulators of FSHR and uses thereof” (TOCOPHERX, INC., priority 2014, dated 2021).
